Source: patent publication US20220288148A1, “METHODS FOR RELIEVING BACK PAIN WITH TERMINALIA CHEBULA COMPOSITIONS” (Natreon, Inc., priority 2021, published 2022)

Tests used:
[1] = system: low back pain; experiment: Case reports of human subjects with low back pain (Examples 2-5); assay type: in vivo; conditions: before AyuFlex
Method: Several human subjects suffering from back pain were administered an effective amount of a T. chebula composition according to the present invention (AyuFlex®, an aqueous extract of T. chebula fruit in powdered and standardized form, orally administered in a capsule containing 500 mg of the extract). […] Subject weights ranged from 54.5 kg to 72.7 kg, and daily doses ranged from 500 mg to 2000 mg per day of AyuFlex®, which may be calculated at a dose range of about 6.88 mg AyuFlex®/kg body weight of a subject to about 36.7 mg AyuFlex®/kg body weight of a subject.
Prior to administration of AyuFlex®, the subject reported a history of suffering from chronic low back pain, described by the subject as sciatic pain, as well as from patellar tendonitis, for the past ten years. The subject indicated their belief that the low back pain was due to a very active lifestyle that included lifting heavy weights. They previously attempted to relieve the chronic low back pain with numerous rounds of physical therapy and rehab-based regimens, but was only provided with temporary relief until they resumed exercise.
The subject began oral administration of 2 (two) 500 mg AyuFlex® capsules daily to treat their low back pain.
Prior to administration of AyuFlex®, the subject reported a history of back pain described by the subject as sciatic pain, beginning when they were young. They were a gymnast for many years, and as a result injured their back. They were diagnosed with small compression fractures and disk bulges in their lower back. Throughout their teen years, the subject underwent intermittent physical therapy, and also sought treatment from a chiropractor for two years. Although the subject reported some temporary relief from these treatments, their pain was not resolved.
The subject further reported that, due to lack of exercise over the years, their sciatic pain became extremely severe. […] Within a month of the onset of these severe symptoms, the subject described having only one or two days where […] was pain-free. […] reported relying heavily on acetaminophen (Tylenol®) and ibuprofen (Advil®) to ease their pain, as they were often not able to sleep due to the sharp sciatic pain. […] Along with the sciatic pain, for a few months before beginning administration of Ayuflex®, the subject reported experiencing stiffness in […] lower back as well. […] reported needing to bend their back to walk for a few minutes after they would stand.
The subject began oral administration of Ayuflex®, taking a 500 mg capsule twice daily for about 2 months, and then recently chose to increase the dosage to 1000 mg (2 capsules) twice daily. […]

[2] = system: collagen-induced arthritis; conditions: mice with collagen-induced arthritis; cited from earlier work
[3] = system: subjects with hyperuricemia; conditions: cited from earlier work

SMILES	subject-reported pain relief by prior analgesics ([1]; Example 3 subject)	subject-reported pain relief by prior analgesics ([1]; Example 5 subject)	other results
CC(=O)Nc1ccc(O)cc1 [acetaminophen]	only relieved their pain for a few hours	only relieved the pain for a few hours	
O=C(O)C[C@@H]1C(=O)O[C@H]2[C@H](OC(=O)c3cc(O)c(O)c(O)c3)[C@@H](OC(=O)c3cc(O)c(O)c4c3[C@H]1[C@H](O)C(=O)O4)[C@H](OC(=O)c1cc(O)c(O)c(O)c1)O[C@@H]2COC(=O)c1cc(O)c(O)c(O)c1 [chebulinic acid]			conclusion on anti-VEGF antiangiogenic action for inflammatory arthritis [2]: safe and potent anti-VEGF antiangiogenic agent
Cc1nc(-c2ccc(OCC(C)C)c(C#N)c2)sc1C(=O)O [febuxostat]			reduction in mean serum uric acid levels compared to baseline ([3]; as early as 4 weeks, T. bellerica 500 and 250 mg BID, febuxostat 40 mg, T. chebula 500 mg BID): Significant reduction; serum uric acid levels, baseline ([3]; baseline, T. bellerica 500 mg BID, febuxostat 40 mg once daily, in mg/dL (unit assumed)): 8.53±0.97; serum uric acid levels at the end of 24 weeks ([3]; end of 24 weeks, T. bellerica 500 mg BID, febuxostat 40 mg once daily, in mg/dL (unit assumed)): 4.28±0.67
CC(C)Cc1ccc(C(C)C(=O)O)cc1 (centres unmarked) [ibuprofen]	only relieved their pain for a few hours	only relieved the pain for a few hours	
